From US20250205230A1 (priority 2022, published 2025)

Key:
[1] = test system: VSV-G glycoprotein; assay type: cell-based, vesicular stomatitis Indiana virus (VSV)
[2] = test system: VSV-G; assay type: cell-based, vesicular stomatitis Indiana virus (VSV)

Q: With `CN(N=Cc1ccc(O)c(O)c1)c1nc(-c2ccccc2)cc(-c2ccccc2)n1` [MK-28, 4-((2-(4,6-diphenylpyrimidin-2-yl)-2-methylhydrazineylidene)methyl) benzene-1,2-diol] as the molecule, how does the “Endo H-resistance of VSV-G relative to untreated control cells” value [1] read?
A: about half the resistance of untreated control cells

Q: And the “Endo H-resistance of VSV-G” value [2]?
A: decreased considerably
